According to patent publication USRE35517E, “Method, compositions, and compounds for modulating brain excitability” (priority 1992, dated 1997):
Read-outs that look alike come from different tables or passages of the source.

Tests used:
[1] = system: GABA/benzodiazepine receptor-chloride ionopore complex (GBR complex); assay: Modulation of [35S]TBPS binding in rat cerebral cortex P2 homogenate; set-up: species or system rat (male Sprague-Dawley); settings: for +5 μM IC50: inhibition of 2 nM [35S]TBPS binding, +5 μM (GABA); for +5 μM IC50 / CONTROL IC50: 25° C., 90 minutes; for CONTROL IC50: inhibition of basal 2 nM [35S]TBPS binding
Description: These procedures were performed as follows:

[2] = system: metrazol; set-up: key: NP: no protection; settings: mice, cited from earlier work
[3] = system: (+)bicuculline-induced seizures; set-up: key: NP: no protection; settings: mice, cited from earlier work
[4] = system: strychnine; set-up: key to ED50 STR (strychnine): NP: no protection; settings: mice, cited from earlier work
[5] = system: picrotoxin; set-up: key: NP: no protection; settings: mice, cited from earlier work
[6] = system: maximal electroshock; set-up: unit not given here; settings: mice, cited from earlier work
[7] = Acute lethality (LD50); settings: mice; from therapeutic index
[8] = system: rotorod performance; assay: Rotorod test (sedative potential); set-up: ED50 RR (rotorod): unit not given beside the values; settings: mice
[9] = system: GABA/benzodiazepine receptor-chloride ionopore complex (GBR complex); assay: Dissociation kinetics of [35S]TBPS in rat cerebral cortical membranes; type: binding; settings: for biphasic dissociation mechanism of [35S]TBPS: FIGS. 2A, 2B, pentobarbital 30 micromolar, alphaxalone 300 nanomolar, 5-alpha-pregnan-3-alpha-hydroxy-20-one 20 nanomolar; for t1/2, R (rapidly dissociating component) / t1/2, S (slowly dissociating component): 30 nM Na pentobarbital; for Total percentage of specific sites, R: rapidly dissociating component, Na pentobarbital (**P < 0.01 vs control); for Total percentage of specific sites, S: slowly dissociating component, Na pentobarbital (*P < 0.05 vs control)
Description: An assay was performed to determine the effect of pentobarbital on the dissociation kinetics of [^35 S]TBPS in rat cerebral cortical membranes. This assay was performed in accordance with the procedures outlined above. […] Dissociation of bound [^35 ]TBPS was initiated by 2 micromolar TBPS in all cases.

[10] = system: convulsions; assay: Anticonvulsant screen (chemical convulsants and maximal electroshock), overall; type: in vivo, mice; settings: in comparison to clinically useful anticonvulsants, benzodiazepines
Description: Experiments were also performed to determine the physiological relevance of these interactions by measuring the ability of the compounds of and used in the invention to modulate TBPS-induced convulsions in Swiss-Webster mice. […] The time to onset of myoclonus (presence of forelimb clonic activity) induced by TBPS was determined by observing each mouse of a period of 45 minutes. Significant differences between the time to onset in control mice vs. steroid-treated mice were determined by Student's t-test. […] The number of animals with tonic and/or clonic convulsions was recorded. In the maximal electroshock test, 50 mA of current at 60 Hz was delivered through corneal electrodes for 200 msec. […] The ED50 (the dose at which the half-maximal effect occurs) dose was determined for each screen.

[11] = system: BZ receptor; assay: Modulation of [3H]flunitrazepam binding in rat hippocampal homogenates, with pentobarbital (FIG. 3); settings: 1.0 millimolar pentobarbital, 0.25 nM [3H]FLU, absence of GABA
[12] = system: premenstrual syndrome, PND, catamenial epilepsy; settings: patients, cited from earlier work
[13] = system: rotorod performance; set-up: unit not given beside the values; settings: mice; data from Swinyard & Woodhead 1982; cited from earlier work
[14] = data from Swinyard & Woodhead 1982, NP = no protection
[15] = data from Swinyard & Woodhead 1982
[16] = [35S]TBPS dissociation, rat cortex, 300 nM alphaxalone, 20 nM a-OH-DHP
[17] = [35S]TBPS dissociation, rat cortex, Na pentobarbital, 300 nM alphaxalone, 20 nM a-OH-DHP
[18] = 300 nM alphaxalone, 20 nM a-OH-DHP
[19] = convulsant administered i.v., data from Worms et al. 1982

C[C@]12CC[C@@H]3c4ccc(O)cc4CC[C@H]3[C@@H]1CC[C@@H]2O [17β-ESTRADIOL]
+5 μM IC50 [1]: INACTIVE | CONTROL IC50 [1]: INACTIVE

CC(C)CCC[C@@H](C)[C@H]1CC[C@H]2[C@@H]3CC=C4C[C@@H](O)CC[C@]4(C)[C@H]3CC[C@]12C [CHOLESTEROL]
+5 μM IC50 [1]: INACTIVE | CONTROL IC50 [1]: INACTIVE

CCCC(CCC)C(=O)O [Valproate]
ED50 MTZ (metrazol) [2, 14]: 149 | ED50 BIC (bicuculline) [3, 14]: 360 | ED50 STR (strychnine) [4, 14]: 293 | ED50 PICRO (picrotoxin) [5, 14]: 387 | ED50 MES (maximal electroshock) [6, 15]: 272

CC(=O)[C@H]1CC[C@H]2[C@@H]3CC[C@H]4C[C@H](O)CC[C@]4(C)[C@H]3CC[C@]12C [3α-OH-DHP, 3α-hydroxy-5α-pregnan-20-one]
toxicity, in words [7]: very low toxicity | ED50 RR (rotorod) ([8]; 10 minutes after injection): 40-100 | sedative liability at anticonvulsant doses ([8]; rotorod ED50 compared with (+)bicuculline ED50): low | biphasic dissociation mechanism of [35S]TBPS [9]: absent | t1/2, R (rapidly dissociating component) [9, 16]: 6.4 ± 1 | t1/2, S (slowly dissociating component) [9, 16]: 76 ± 11 | k-1, S (slowly dissociating component) [9, 17]: 0.011 ± 0.002 min⁻¹ | Total percentage of specific sites, R [9, 18]: 35 ± 3% | influence on the dissociation kinetics of [35S]TBPS binding ([9]; rat cerebral cortex): do not influence the dissociation kinetics | Total percentage of specific sites, S [9, 18]: 68 ± 3% | anticonvulsant activity / profile [10]: highly effective with a profile similar to that of the benzodiazepine clonazepam | interaction with pentobarbital in the enhancement of [3H]flunitrazepam binding [11]: does not interact with pentobarbital

CCCC(C)C1(CC)C(=O)NC(=O)NC1=O (stereo not shown) [Pentobarbital]
biphasic dissociation mechanism of [35S]TBPS [9]: induces a biphasic dissociation mechanism | t1/2, R (rapidly dissociating component) [9, 16]: 4.4 ± 0.3 | t1/2, S (slowly dissociating component) [9, 16]: 38 ± 3 | k-1, R (rapidly dissociating component) [9, 17]: 0.158 ± 0.013 min⁻¹ | k-1, S (slowly dissociating component) [9, 17]: 0.0186 ± 0.0015 min⁻¹ | Total percentage of specific sites, R [9, 18]: 48 ± 6% | Total percentage of specific sites, S [9, 18]: 61 ± 6%

CC(=O)[C@H]1CC[C@H]2[C@@H]3CCC4=CC(=O)CC[C@]4(C)[C@H]3CC[C@]12C [PROGESTERONE]
potency (and efficacy) at the GBR complex ([1]; in vitro, [35S]TBPS binding): very low potency | effectiveness in the treatment of PMS, PND and catamenial epilepsy ([12]; literature): not consistently effective | dose-response relationship in the treatment of PMS ([12]; Maddocks et al., Dennerstein et al. 1986): no dose-response relationship exists

NC(=O)CCC/N=C(\c1ccc(Cl)cc1)c1cc(F)ccc1O [Progabide]
ED50 MTZ (metrazol) [2, 19]: 30 | ED50 BIC (bicuculline) [3, 19]: 30 | ED50 STR (strychnine) [4, 19]: 75 | ED50 PICRO (picrotoxin) [5, 19]: 105 | ED50 MES (maximal electroshock) ([6]; data from Worms et al. 1982): 75

O=C1NC(=O)C(c2ccccc2)(c2ccccc2)N1 [Phenytoin]
ED50 MTZ (metrazol) [2, 14]: NP | ED50 BIC (bicuculline) [3, 14]: NP | Maximum protection (strychnine) ([4]; at 55-100 mg/kg, data from Swinyard & Woodhead 1982): 50% | ED50 PICRO (picrotoxin) [5, 14]: NP

O=C1CN=C(c2ccccc2Cl)c2cc([N+](=O)[O-])ccc2N1 [Clonazepam]
ED50 MTZ (metrazol) [2, 14]: 0.009 | ED50 BIC (bicuculline) [3, 14]: 0.0086 | ED50 STR (strychnine) [4, 14]: NP | ED50 PICRO (picrotoxin) [5, 14]: 0.043 | ED50 MES (maximal electroshock) [6, 15]: 93 | ED50 RR (rotorod) [13]: 0.184

C[C@]12C[C@H](O)[C@H]3[C@@H](CCC4=CC(=O)CC[C@@]43C)[C@@H]1CC[C@@H]2C(=O)CO [CORTICOSTERONE, 4-PREGNEN-11β,21- DIOL-3,20-DIONE]
CONTROL IC50 [1]: INACTIVE

CCC1(c2ccccc2)C(=O)NC(=O)NC1=O [Phenobarbital]
ED50 MTZ (metrazol) [2, 14]: 13 | ED50 BIC (bicuculline) [3, 14]: 38 | ED50 STR (strychnine) [4, 14]: 95 | ED50 PICRO (picrotoxin) [5, 14]: 28 | ED50 MES (maximal electroshock) [6, 15]: 22 | ED50 RR (rotorod) [13]: 69

CC(=O)[C@H]1CC[C@H]2[C@@H]3CC[C@H]4C[C@@H](O)CC[C@]4(C)[C@H]3CC[C@]12C [ALLOPREGNANLONE, 5α-PREGNAN-3β-OL- 20-ONE]
CONTROL IC50 [1]: INACTIVE

CC(=O)[C@H]1CC[C@H]2[C@@H]3CC=C4C[C@@H](O)CC[C@]4(C)[C@H]3CC[C@]12C [PREGNENOLONE, 5α-PREGNEN-3β-OL- 20-ONE]
CONTROL IC50 [1]: INACTIVE
